Results on five compounds are retold here after PMC4402537, “mRNA maturation in giant viruses: variation on a theme” (Nucleic Acids Research, 2015).

The term Kd denotes the equilibrium constant for the complex coming apart. In general, stoichiometry N refers to a count of units in the complex or per binding partner.

Assay [1] deals with Megavirus chilensis Mg18 protein with N-terminal His6 tag (H6c+Mg18) (Megavirus chilensis). The assay is described as follows: BLI. Background: Biolayer interferometry detects binding as a change in optical thickness at a sensor tip.
Assay [2] has as its target Megavirus chilensis polyA polymerase Mg561, after tag removal (H6c-Mg561) (Megavirus chilensis). The assay is described as follows: SEC; gel filtration of purified proteins, GE Healthcare markers for calibration. For orientation: Size exclusion chromatography separates by hydrodynamic size, large species first.
Another assay has as its target T1, R341 (H6c-R341) (Acanthamoeba polyphaga mimivirus, UniProt Q5UQS6).
T1 construct: gene MIMI_R341
As to conditions: 100 μM ATP, 5 mM MgCl2 or 0.5 mM MnCl2, pH 7.5, 30°C.

For assay [3], the target named is T2, Mg561 (H6c-Mg561) (Megavirus chiliensis, UniProt G5CT11).
T2 construct: gene mchi_555; full length, N-terminal His6 tag removed by HRV 3C protease; E. coli Rosetta (DE3)
T2 sequence (G5CT11 1-531): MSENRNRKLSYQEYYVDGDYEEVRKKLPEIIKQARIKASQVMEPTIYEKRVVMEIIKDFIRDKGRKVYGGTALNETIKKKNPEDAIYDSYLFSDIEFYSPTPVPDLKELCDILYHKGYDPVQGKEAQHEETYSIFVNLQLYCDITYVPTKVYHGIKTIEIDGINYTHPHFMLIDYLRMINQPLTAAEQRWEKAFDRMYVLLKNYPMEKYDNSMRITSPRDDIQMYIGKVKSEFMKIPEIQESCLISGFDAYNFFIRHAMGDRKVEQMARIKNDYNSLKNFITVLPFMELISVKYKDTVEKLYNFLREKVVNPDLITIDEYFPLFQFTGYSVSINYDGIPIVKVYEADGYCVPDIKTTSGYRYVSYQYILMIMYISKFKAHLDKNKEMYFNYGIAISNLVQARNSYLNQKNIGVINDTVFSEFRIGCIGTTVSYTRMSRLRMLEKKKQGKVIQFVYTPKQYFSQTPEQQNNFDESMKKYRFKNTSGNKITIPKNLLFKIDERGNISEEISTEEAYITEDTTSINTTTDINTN
As to the kind of experiment: in vitro polyadenylation of […]-labelled 20-mer RNA, urea-PAGE. The format is biochemical. As to conditions: 100 μM ATP, 5 mM MgCl2 or 0.5 mM MnCl2, pH 7.5, 30°C.

The target in assay [4] is Mimivirus polyA polymerase R341, after tag removal (H6c-R341) (Mimivirus). As to the kind of experiment: SEC; gel filtration of purified proteins, GE Healthcare markers for calibration.
For assay [5], the target named is T2, Mg561 (H6c-Mg561). The assay is described as follows: in vitro polyU tailing of […]-labelled 20-mer RNA, urea-PAGE. The format is biochemical. As to conditions: 100 μM UTP in place of ATP, Mn2+ (similar with Mg2+), pH 7.5, 30°C.
A further assay has as its target T3, Mg18 (H6c+Mg18) (Megavirus chiliensis, UniProt G5CQI9).
T3 construct: gene mchi_21; full length, N-terminal His6 tag kept; E. coli Rosetta (DE3)
T3 sequence (G5CQI9 1-340): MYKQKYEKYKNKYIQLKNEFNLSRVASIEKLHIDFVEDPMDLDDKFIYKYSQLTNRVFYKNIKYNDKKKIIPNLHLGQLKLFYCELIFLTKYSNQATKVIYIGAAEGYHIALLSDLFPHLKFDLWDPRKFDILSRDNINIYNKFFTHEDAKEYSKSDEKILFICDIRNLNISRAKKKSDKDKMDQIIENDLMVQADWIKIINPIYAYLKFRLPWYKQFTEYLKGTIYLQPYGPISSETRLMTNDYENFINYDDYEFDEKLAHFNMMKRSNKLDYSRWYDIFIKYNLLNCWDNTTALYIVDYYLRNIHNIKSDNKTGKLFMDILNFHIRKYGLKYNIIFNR
As to the kind of experiment: methyl transfer from 3H-AdoMet to RNA, DEAE filter binding. Type of assay: biochemical. As to conditions: 10 μM AdoMet, GpppAN13, 7MeGpppAN13 or poly(A) RNA 0.7 μM, 1 mM MgCl2, pH 7.5, 30°C; labelled compound.

In assay [1], “Megavirus chilensis polyA polymerase Mg561, after tag removal (H6c-Mg561) (enzyme)” registered a Kd of 6.2 µM. This compound also gave a stoichiometry N in assay [2] of 2.

In the case of `Nc1ncnc2c1ncn2[C@@H]1O[C@H](COP(=O)(O)OP(=O)(O)OP(=O)(O)O)[C@@H](O)[C@H]1O` [ATP], the “in vitro polyadenylation of 32P-labelled 20-mer RNA, urea-PAGE” value at R341 (H6c-R341) was “synthesize long products, apparently proccessively, derived from the RNA and ATP”; on Mg561 (H6c-Mg561) [3] it was “synthesize long products, apparently proccessively, derived from the RNA and ATP”.

Take “Mimivirus polyA polymerase R341, after tag removal (H6c-R341) (enzyme)”: the stoichiometry N in assay [4] is 2.

Regarding `O=c1ccn([C@@H]2O[C@H](COP(=O)(O)OP(=O)(O)OP(=O)(O)O)[C@@H](O)[C@H]2O)c(=O)[nH]1` [UTP], the “in vitro polyU tailing of 32P-labelled 20-mer RNA, urea-PAGE” value on Mg561 (H6c-Mg561) [5] is reported as “Mg561 was also able to add long polyU tails, although with a reduced activity”.

Turning to `C[S+](CC[C@H](N)C(=O)O)C[C@H]1O[C@@H](n2cnc3c(N)ncnc32)[C@H](O)[C@@H]1O` (stereo partly shown) [AdoMet], the “methyl transfer from 3H-AdoMet to RNA, DEAE filter binding” value at Mg18 (H6c+Mg18) is “Mg18 had comparable activity with 7MeGpppAN13 and GpppAN13”.
